Data taken from US20090137572A1, “2-substituted-4-heteroaryl-pyrimidines useful for the treatment of proliferative disorders” (priority 2004, published 2009).

Legend:
Assay type in all cases: biochemical
CDK1-cyclin B = CDK1-cyclin B (Homo sapiens, UniProt P06493); experiment: Kinase assay (radioactive phosphate incorporation), CDK1-cyclin B; conditions: read-out: Kinase Inhibition pIC50 CDK1-cyclin B (converted)
In short: (§1)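 Each recombinant kinase was combined with its polypeptide substrate in pH 7.4 assay buffer. Mg/ATP mix carrying [γ-32P]-ATP (100 μM ATP) was then added and the plate incubated at 30° C. After stopping on ice, the reaction was filtered, washed with 75 mM orthophosphoric acid, dried and counted.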

[1] = target: T1, protein kinases (panel of Table 4) (Homo sapiens, UniProt Q16539); experiment: Kinase selectivity profile, kinase inhibition IC50 (Table 4), ATP 100 μM; conditions: kinase SAPK2a
T1 construct: other: kinase SAPK2a; ATP 100 μM

CDK2-cyclin A = CDK2-cyclin A (Homo sapiens, UniProt P24941); experiment: Kinase assay (radioactive phosphate incorporation), CDK2-cyclin A; conditions: read-out: Kinase Inhibition pIC50 CDK2-cyclin A (converted)
In short: as §1

MKK1 = MKK1 (Homo sapiens, UniProt Q02750); experiment: Kinase selectivity profile, MKK1; conditions: 5 μM test compound, compared to control; ATP 5 μM
Method: (§2) The kinase selectivity profiles of selected example compounds were determined, essentially as described (Bain, J.; McLauchlan, H.; Elliott, M.; Cohen, P. Biochemical Journal, 2003, 371, 199.); the results are shown in Tables 3 & 4. For the assays shown in Table 3, the kinases were assayed at the following ATP concentrations: SAPK4, PKBΔph, GSK3b, SAPK3, CK2, MKK1, PIM2, IKKB, ERK8, and PRK2 at 5 μM; JNK, PRAK, ROCK-II, SAPK2b, CDK2, CHK1, MSK1, CSK, P70S6K, PKA, CK1, MAPKAP-K2, SGK, PKCa, PDK1, NEK 7, and MAPKAP-K3 at 20 μM; SAPK2a, LCK, AMPK, MAPK2, DYRK1a, MAPKAP-K1a, NEK-6, NEK2a, PBK, CAMK-1, SRPK-1, JNK3, MNK2, RSK2, MNK1, PKBB, and SmMLCK at 50 μM. For the assays in Table 4 the ATP concentration was 100 μM throughout.

MAPK2/ERK2 = MAPK2/ERK2 (Homo sapiens, UniProt P28482); experiment: Kinase selectivity profile, MAPK2/ERK2; conditions: 5 μM test compound, compared to control; ATP 50 μM
Method: as §2

SAPK2a/p38 = SAPK2a/p38 (Homo sapiens, UniProt Q16539); experiment: Kinase selectivity profile, SAPK2a/p38; conditions: 5 μM test compound, compared to control; ATP 50 μM
Method: as §2

SAPK4/p38d = SAPK4/p38d (Homo sapiens, UniProt O15264); experiment: Kinase selectivity profile, SAPK4/p38d; conditions: 5 μM test compound, compared to control; ATP 5 μM
Method: as §2

PRAK = PRAK (Homo sapiens, UniProt Q8IW41); experiment: Kinase selectivity profile, PRAK; conditions: 5 μM test compound, compared to control; ATP 20 μM
Method: as §2

PKA = PKA (Homo sapiens, UniProt P17612); experiment: Kinase selectivity profile, PKA; conditions: 5 μM test compound, compared to control; ATP 20 μM
Method: as §2

PKCa = PKCa (Homo sapiens, UniProt P17252); experiment: Kinase selectivity profile, PKCa; conditions: 5 μM test compound, compared to control; ATP 20 μM
Method: as §2

PDK1 = PDK1 (Homo sapiens, UniProt O15530); experiment: Kinase selectivity profile, PDK1; conditions: 5 μM test compound, compared to control; ATP 20 μM
Method: as §2

PKB = experiment: Kinase selectivity profile, PKB; conditions: 5 μM test compound, compared to control; ATP 5 μM (PKBΔph)
Method: as §2

ROCK-II = ROCK-II (Homo sapiens, UniProt O75116); experiment: Kinase selectivity profile, ROCK-II; conditions: 5 μM test compound, compared to control; ATP 20 μM
Method: as §2

AMPK = experiment: Kinase selectivity profile, AMPK; conditions: 5 μM test compound, compared to control; ATP 50 μM
Method: as §2

CHK1 = CHK1 (Homo sapiens, UniProt O14757); experiment: Kinase selectivity profile, CHK1; conditions: 5 μM test compound, compared to control; ATP 20 μM
Method: as §2

CSK = CSK (Homo sapiens, UniProt P41240); experiment: Kinase selectivity profile, CSK; conditions: 5 μM test compound, compared to control; ATP 20 μM
Method: as §2

CK1 = experiment: Kinase selectivity profile, CK1; conditions: 5 μM test compound, compared to control; ATP 20 μM
Method: as §2

MAPKAP-K1b = MAPKAP-K1b (Homo sapiens, UniProt P51812); experiment: Kinase selectivity profile, MAPKAP-K1b; conditions: 5 μM test compound, compared to control
Method: as §2

IKKb = IKKb (Homo sapiens, UniProt O14920); experiment: Kinase selectivity profile, IKKb; conditions: 5 μM test compound, compared to control; ATP 5 μM
Method: as §2

smMLCK = smMLCK (Homo sapiens, UniProt Q15746); experiment: Kinase selectivity profile, smMLCK; conditions: 5 μM test compound, compared to control; ATP 50 μM
Method: as §2

NEK7 = NEK7 (Homo sapiens, UniProt Q8TDX7); experiment: Kinase selectivity profile, NEK7; conditions: 5 μM test compound, compared to control; ATP 20 μM
Method: as §2

CDK1-cyclin B, sequence (P06493 whole entry): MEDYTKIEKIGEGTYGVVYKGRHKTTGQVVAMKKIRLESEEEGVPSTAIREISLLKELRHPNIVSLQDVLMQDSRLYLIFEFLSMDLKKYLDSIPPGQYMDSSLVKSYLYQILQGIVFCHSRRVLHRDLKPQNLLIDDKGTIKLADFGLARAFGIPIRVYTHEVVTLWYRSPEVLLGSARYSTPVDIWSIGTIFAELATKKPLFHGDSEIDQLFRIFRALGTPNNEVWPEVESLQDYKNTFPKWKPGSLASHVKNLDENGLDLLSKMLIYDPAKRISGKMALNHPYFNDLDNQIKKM
CDK1-cyclin B, sequence (P14635 whole entry partner): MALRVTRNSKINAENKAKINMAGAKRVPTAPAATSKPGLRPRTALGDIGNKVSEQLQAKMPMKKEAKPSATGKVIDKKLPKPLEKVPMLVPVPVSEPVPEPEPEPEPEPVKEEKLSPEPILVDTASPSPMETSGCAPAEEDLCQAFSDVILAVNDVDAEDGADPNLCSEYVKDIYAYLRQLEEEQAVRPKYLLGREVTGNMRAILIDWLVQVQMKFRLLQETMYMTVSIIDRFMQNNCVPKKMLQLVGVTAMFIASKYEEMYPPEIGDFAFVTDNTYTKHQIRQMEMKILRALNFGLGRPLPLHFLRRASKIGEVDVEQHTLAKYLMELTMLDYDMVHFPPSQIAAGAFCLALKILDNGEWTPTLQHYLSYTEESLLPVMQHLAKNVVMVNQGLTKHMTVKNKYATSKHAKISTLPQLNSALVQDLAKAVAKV
CHK1, sequence (O14757 whole entry, species assumed): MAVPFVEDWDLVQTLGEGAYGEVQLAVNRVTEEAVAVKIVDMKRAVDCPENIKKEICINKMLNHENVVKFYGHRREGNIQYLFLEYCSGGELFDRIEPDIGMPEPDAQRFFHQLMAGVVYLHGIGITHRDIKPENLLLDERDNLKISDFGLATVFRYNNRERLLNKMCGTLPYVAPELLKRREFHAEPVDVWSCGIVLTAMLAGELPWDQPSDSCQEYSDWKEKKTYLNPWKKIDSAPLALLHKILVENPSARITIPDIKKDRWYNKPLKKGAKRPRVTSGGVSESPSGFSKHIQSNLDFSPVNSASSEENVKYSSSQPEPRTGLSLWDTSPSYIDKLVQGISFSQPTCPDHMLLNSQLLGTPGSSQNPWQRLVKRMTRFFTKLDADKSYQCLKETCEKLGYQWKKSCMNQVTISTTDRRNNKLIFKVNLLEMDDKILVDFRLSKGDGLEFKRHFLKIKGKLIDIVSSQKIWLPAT
SAPK4/p38d, sequence (O15264 whole entry): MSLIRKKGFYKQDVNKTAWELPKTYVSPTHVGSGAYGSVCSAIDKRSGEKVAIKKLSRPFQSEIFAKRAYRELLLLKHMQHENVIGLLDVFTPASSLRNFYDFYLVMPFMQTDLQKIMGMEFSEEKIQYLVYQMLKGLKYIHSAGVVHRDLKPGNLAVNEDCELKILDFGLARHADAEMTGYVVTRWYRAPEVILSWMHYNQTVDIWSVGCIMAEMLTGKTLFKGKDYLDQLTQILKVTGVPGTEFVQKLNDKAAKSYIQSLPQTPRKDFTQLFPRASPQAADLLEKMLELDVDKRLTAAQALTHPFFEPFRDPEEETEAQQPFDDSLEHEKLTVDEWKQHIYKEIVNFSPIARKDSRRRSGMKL
PRAK, sequence (Q8IW41 whole entry, species assumed): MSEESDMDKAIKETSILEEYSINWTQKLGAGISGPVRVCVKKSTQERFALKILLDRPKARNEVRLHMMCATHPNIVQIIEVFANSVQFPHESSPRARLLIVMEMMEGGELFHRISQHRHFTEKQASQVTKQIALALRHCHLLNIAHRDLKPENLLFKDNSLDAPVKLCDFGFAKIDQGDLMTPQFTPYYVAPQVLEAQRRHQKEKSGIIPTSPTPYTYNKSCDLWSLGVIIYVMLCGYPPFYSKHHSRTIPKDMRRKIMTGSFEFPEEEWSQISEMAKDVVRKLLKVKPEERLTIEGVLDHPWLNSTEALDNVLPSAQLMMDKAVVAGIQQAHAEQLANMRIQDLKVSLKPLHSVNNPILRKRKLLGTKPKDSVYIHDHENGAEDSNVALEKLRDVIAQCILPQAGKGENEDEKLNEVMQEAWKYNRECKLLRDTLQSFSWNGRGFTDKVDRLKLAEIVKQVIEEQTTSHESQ
PDK1, sequence (O15530 whole entry): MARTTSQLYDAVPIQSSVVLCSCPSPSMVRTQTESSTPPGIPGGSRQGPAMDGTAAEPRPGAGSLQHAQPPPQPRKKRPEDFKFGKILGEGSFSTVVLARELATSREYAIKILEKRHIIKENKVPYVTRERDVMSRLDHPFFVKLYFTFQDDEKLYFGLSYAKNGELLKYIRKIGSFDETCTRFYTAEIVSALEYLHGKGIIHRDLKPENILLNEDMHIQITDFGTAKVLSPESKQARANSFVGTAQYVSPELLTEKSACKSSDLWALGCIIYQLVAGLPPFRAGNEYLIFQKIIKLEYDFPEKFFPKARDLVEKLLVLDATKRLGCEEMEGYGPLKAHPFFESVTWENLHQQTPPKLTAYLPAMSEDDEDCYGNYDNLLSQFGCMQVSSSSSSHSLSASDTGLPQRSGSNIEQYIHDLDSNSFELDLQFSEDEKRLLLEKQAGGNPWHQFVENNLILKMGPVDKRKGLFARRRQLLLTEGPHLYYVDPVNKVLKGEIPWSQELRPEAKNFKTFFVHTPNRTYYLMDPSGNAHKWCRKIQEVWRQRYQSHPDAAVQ
MAPK2/ERK2, sequence (P28482 whole entry): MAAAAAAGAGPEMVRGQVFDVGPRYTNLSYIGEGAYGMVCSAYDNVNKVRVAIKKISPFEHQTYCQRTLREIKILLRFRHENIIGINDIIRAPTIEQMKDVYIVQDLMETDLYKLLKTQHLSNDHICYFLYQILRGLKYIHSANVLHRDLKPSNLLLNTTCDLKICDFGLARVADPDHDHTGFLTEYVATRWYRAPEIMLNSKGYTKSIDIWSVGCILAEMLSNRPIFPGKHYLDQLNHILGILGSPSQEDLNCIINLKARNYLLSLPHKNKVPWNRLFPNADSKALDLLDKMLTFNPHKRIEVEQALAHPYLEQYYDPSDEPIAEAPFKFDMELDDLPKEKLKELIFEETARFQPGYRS
SAPK2a/p38, sequence (Q16539 whole entry): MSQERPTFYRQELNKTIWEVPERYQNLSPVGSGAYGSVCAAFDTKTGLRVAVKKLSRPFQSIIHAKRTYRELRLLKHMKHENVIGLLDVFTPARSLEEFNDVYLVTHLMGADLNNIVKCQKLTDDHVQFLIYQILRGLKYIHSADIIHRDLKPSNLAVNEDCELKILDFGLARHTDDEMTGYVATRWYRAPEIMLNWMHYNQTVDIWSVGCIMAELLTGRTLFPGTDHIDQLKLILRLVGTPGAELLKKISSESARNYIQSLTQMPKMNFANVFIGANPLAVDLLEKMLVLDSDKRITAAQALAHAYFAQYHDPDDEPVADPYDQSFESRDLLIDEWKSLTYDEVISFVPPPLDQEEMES
T1 sequence (Q16539 whole entry): as above
NEK7, sequence (Q8TDX7 whole entry, species assumed): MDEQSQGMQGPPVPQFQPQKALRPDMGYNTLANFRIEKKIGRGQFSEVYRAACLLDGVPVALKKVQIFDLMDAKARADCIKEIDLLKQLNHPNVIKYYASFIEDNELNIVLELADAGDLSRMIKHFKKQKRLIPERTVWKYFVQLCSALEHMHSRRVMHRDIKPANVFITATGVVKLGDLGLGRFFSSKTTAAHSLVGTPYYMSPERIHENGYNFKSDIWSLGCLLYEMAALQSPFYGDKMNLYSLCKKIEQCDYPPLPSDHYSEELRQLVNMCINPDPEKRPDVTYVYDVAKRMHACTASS
MKK1, sequence (Q02750 whole entry, species assumed): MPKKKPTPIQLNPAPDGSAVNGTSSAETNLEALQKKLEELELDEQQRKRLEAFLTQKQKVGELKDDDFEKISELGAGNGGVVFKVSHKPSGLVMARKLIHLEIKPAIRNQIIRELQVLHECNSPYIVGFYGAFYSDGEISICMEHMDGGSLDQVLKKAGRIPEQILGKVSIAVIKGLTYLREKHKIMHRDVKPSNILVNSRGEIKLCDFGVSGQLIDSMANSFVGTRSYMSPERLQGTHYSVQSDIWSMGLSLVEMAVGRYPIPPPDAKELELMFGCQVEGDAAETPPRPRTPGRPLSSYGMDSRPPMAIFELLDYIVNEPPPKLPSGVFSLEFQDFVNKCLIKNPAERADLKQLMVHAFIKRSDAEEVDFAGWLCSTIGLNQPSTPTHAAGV

IC50 (CDK1-cyclin B) | IC50 (CDK2-cyclin A) | Compound | IC50 [1] | remaining activity at 5 µM (MKK1) | remaining activity at 5 µM (MAPK2/ERK2) | remaining activity at 5 µM (SAPK2a/p38) | remaining activity at 5 µM (SAPK4/p38d) | remaining activity at 5 µM (PRAK) | remaining activity at 5 µM (PKA) | remaining activity at 5 µM (PKCa) | remaining activity at 5 µM (PDK1) | Remaining activity (%) PKB (PKB) | remaining activity at 5 µM (ROCK-II) | Remaining activity (%) AMPK (AMPK) | remaining activity at 5 µM (CHK1) | remaining activity at 5 µM (CSK) | Remaining activity (%) CK1 (CK1) | remaining activity at 5 µM (MAPKAP-K1b) | remaining activity at 5 µM (IKKb) | remaining activity at 5 µM (smMLCK) | other results
200 nM |  | CNc1nc(C)c(-c2ccnc(Nc3cccc(S(N)(=O)=O)c3)n2)s1 [Compound 19, 3-[4-(4-Methyl-2-methylamino-thiazol-5-yl)-pyrimidin-2-ylamino]-benzenesulfonamide] | 580 nM |  |  |  |  |  |  |  |  |  |  |  |  |  |  |  |  |  | 
251 nM | 6.31 nM | CNc1nc(C)c(-c2ccnc(Nc3cccc(S(C)(=O)=O)c3)n2)s1 [Compound 27, (3-Methanesulfonyl-phenyl)-[4-(4-methyl-2-methylamino-thiazol-5-yl)-pyrimidin-2-yl]-amine] |  |  |  |  |  |  |  |  |  |  |  |  |  |  |  |  |  |  | 
3160 nM | 2000 nM | COCCNS(=O)(=O)c1cccc(Nc2nccc(-c3sc(N)nc3C)n2)c1 [Compound 55, 3-[4-(2-Amino-4-methyl-thiazol-5-yl)-pyrimidin-2-ylamino]-N-(2-methoxy-ethyl)-benzenesulfonamide] |  |  |  |  |  |  |  |  |  |  |  |  |  |  |  |  |  |  | 
 |  | Cc1nc(CS(=O)(=O)c2cccs2)sc1-c1ccnc(Nc2ccc(N3CCOCC3)cc2)n1 [Compound 138, {4-[4-Methyl-2-(thiophene-2-sulfonylmethyl)-thiazol-5-yl]-pyrimidin-2-yl}-(4-morpholin-4-yl-phenyl)-amine] |  | 21% | 39% | 33% | 85% | 59% | 29% | 41% | 55% | 91% | 14% | 28% | 55% | 30% | 27% | 48% | 34% | 44% | remaining activity at 5 µM (NEK7): 79%

Compound | IC50 (CDK1-cyclin B) | IC50 (CDK2-cyclin A) | IC50 [1] | remaining activity at 5 µM (MKK1) | remaining activity at 5 µM (MAPK2/ERK2) | remaining activity at 5 µM (SAPK2a/p38) | remaining activity at 5 µM (SAPK4/p38d) | remaining activity at 5 µM (PRAK) | remaining activity at 5 µM (PKA) | remaining activity at 5 µM (PKCa) | remaining activity at 5 µM (PDK1) | Remaining activity (%) PKB (PKB) | remaining activity at 5 µM (ROCK-II) | Remaining activity (%) AMPK (AMPK) | remaining activity at 5 µM (CHK1) | remaining activity at 5 µM (CSK) | Remaining activity (%) CK1 (CK1) | remaining activity at 5 µM (MAPKAP-K1b) | remaining activity at 5 µM (IKKb) | remaining activity at 5 µM (smMLCK) | other results
CCNc1nc(C)c(-c2ccnc(Nc3ccc(N4CCNCC4)cc3)n2)s1 [Compound 59, [4-(2-Ethylamino-4-methyl-thiazol-5-yl)-pyrimidin-2-yl]-(4-piperazin-1-yl-phenyl)-amine] | 1000 nM | 501 nM | 3300 nM | 25% | 59% | 39% | 66% | 44% | 22% | 33% | 20% | 82% | 5% | 2% | 10% | 14% | 3% | 17% | 7% | 10% | remaining activity at 5 µM (NEK7): 50%
